# Data as given in patent EP4603105A1, “PHARMACEUTICAL COMPOSITION CONTAINING CYCLIC COMPOUND HAVING SELECTIVE KRAS INHIBITORY EFFECT AGAINST HRAS AND NRAS” (CHUGAI SEIYAKU KABUSHIKI KAISHA, priority 2022, dated 2024).
# Where two headings read alike, the source gives them in different places. *1 amine or outer side, *2 acyl side, *3 side chain or, on linkers, in order; H or OH if unused. Where a SMILES comes first, the peptide text is derived from it. Bridges are numbered along the chain shown (N, C = ends). [ ]: non-standard residue; d: D form. The star is where a group is joined. hPhe(3,5-F2-4-CF3) = N[C@@H](CCc1cc(F)c(C(F)(F)F)c(F)c1)C(=O)O; hPhe(3-Cl-4-CF3) = N[C@@H](CCc1ccc(C(F)(F)F)c(Cl)c1)C(=O)O; X34 = COCCN([C@@H](Cc1ccc(C(F)(F)F)cc1)C(=O)[*:2])[*:1]; NPrPhe(4-CF3) = CCCN[C@@H](Cc1ccc(C(F)(F)F)cc1)C(=O)O; NEtPhe(4-Me) = CCN[C@@H](Cc1ccc(C)cc1)C(=O)O; NMeAbu(4,4,4-F3) = CN[C@@H](CC(F)(F)F)C(=O)O; NMeGly(cPent) = CN[C@H](C(=O)O)C1CCCC1; Hyp = O=C(O)[C@@H]1C[C@@H](O)CN1; NMeD = CN[C@@H](CC(=O)O)C(=O)O; NMeL = CN[C@@H](CC(C)C)C(=O)O; Morpholide = C1CN(*)CCO1; Ac5c = NC1(C(=O)O)CCCC1; Aze = O=C(O)[C@@H]1CCN1; Ethyl(2,2-F2) = FC(F)C*; Sar = CNCC(=O)O
# How the values were obtained:
# [1] = tested on: human lung cancer strain NCI-H441; format: cell-based
# How it was run: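 Readout: […] after the ATP-based reagent. Compound: serial dilutions in dimethyl sulfoxide.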
# [2] = molecular target: GDP-bound NRAS wild-type protein (Homo sapiens, UniProt P01111); experiment: Binding to NRAS by surface plasmon resonance (SPR), KD and KD ratio to KRAS
# GDP-bound NRAS wild-type protein, sequence (P01111 whole entry): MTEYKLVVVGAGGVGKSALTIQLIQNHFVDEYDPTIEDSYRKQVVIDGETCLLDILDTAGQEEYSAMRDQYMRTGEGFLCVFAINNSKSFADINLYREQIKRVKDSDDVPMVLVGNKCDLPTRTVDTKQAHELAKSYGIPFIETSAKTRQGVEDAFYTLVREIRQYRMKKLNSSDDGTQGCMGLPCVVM
# How it was run: (§1)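 GDP-loaded biotinylated Avi-tag RAS proteins (E. coli-expressed) captured on a Biotin CAPture chip at ~100–300 RU; single-cycle kinetics at 30°C, 100 µL/min, 75 s injections of rising compound concentrations. HBS pH 7.4 running buffer with 1 mM DTT, 10 mM MgCl2, 10 µM GDP, 4% DMSO. KD from 1:1 binding fit.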
# [3] = molecular target: HRAS wild-type protein (Homo sapiens, UniProt P01112); experiment: Binding to HRAS by surface plasmon resonance (SPR), KD and KD ratio to KRAS
# HRAS wild-type protein, sequence (P01112 whole entry): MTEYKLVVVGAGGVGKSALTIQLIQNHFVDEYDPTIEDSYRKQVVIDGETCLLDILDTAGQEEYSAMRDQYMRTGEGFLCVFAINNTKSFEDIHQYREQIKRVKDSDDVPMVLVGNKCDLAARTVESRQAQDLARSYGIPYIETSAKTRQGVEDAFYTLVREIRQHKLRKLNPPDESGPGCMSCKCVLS
# How it was run: as §1
# [4] = ratio of KD for GDP-bound NRAS wild-type protein to KD for KRAS
# [5] = ratio of KD for HRAS wild-type protein to KD for KRAS
# [6] = ratio of the KD value with respect to GDP-bound NRAS wild-type protein to the KD value with respect to KRAS
# [7] = ratio of the KD value with respect to HRAS wild-type protein to the KD value with respect to KRAS
SMILES,IC50 [1],"NRAS /KRAS [2, 4]","HRAS /KRAS [3, 5]","NRAS /KRAS [2, 6]","HRAS /KRAS [3, 7]","IC50 ([1]; NCI-H441 cells, 4 days, CellTiter-Glo, read-out: NCl-H441 IC50)"
"CCCN1C(=O)[C@@H]2CCN2C(=O)CN(C)C(=O)[C@H]([C@@H](C)CC)NC(=O)[C@H](CC(C)C)N(C)C(=O)C[C@@H](C(=O)N2CCOCC2)N(C)C(=O)[C@H](CC(F)(F)F)N(C)C(=O)C2(CCCC2)NC(=O)[C@@H]2CCCN2C(=O)[C@H](CCc2cc(F)c(C(F)(F)F)c(F)c2)NC(=O)CN(C)C(=O)[C@@H]1Cc1ccc(C(F)(F)F)cc1 [PP0803] ([NMeL]I[Sar][Aze][NPrPhe(4-CF3)][Sar][hPhe(3,5-F2-4-CF3)]P[Ac5c][NMeAbu(4,4,4-F3)][NMeD]-Morpholide; lactam N-11)",0.0525 µM,C (A compound having a KD ratio of 0.1 or more and less than 3 is denoted as C),B (a compound having 3 or more and less than 10 is denoted as B),–,–,–
CC[C@H](C)[C@@H]1NC(=O)[C@H](CC(C)C)N(C)C(=O)C[C@@H](C(=O)N2CCOCC2)N(C)C(=O)[C@H](C2CCCC2)N(C)C(=O)C2(CCCC2)NC(=O)[C@@H]2CCCN2C(=O)[C@H](CCc2ccc(C(F)(F)F)c(Cl)c2)NC(=O)CN(C)C(=O)[C@H](Cc2ccc(C(F)(F)F)cc2)N(CCOC)C(=O)CN(C)C(=O)CN(C)C1=O [PP0132] ([NMeL]I[Sar][Sar][X34][Sar][hPhe(3-Cl-4-CF3)]P[Ac5c][NMeGly(cPent)][NMeD]-Morpholide; lactam N-11),0.0148 µM,C (A compound having a KD ratio of 0.1 or more and less than 3 is denoted as C),C (A compound having a KD ratio of 0.1 or more and less than 3 is denoted as C),–,–,–
CCCN(C)C(=O)[C@@H]1CC(=O)N(C)[C@@H](CC(F)F)C(=O)N[C@@H]([C@@H](C)CC)C(=O)N(C)CC(=O)N(C)[C@H]2C/C=C\CCN(C2=O)[C@@H](Cc2ccc(C(F)(F)F)cc2)C(=O)N(C)CC(=O)N[C@@H](CCc2cc(F)c(C(F)(F)F)c(F)c2)C(=O)N2C[C@@H](C)C[C@H]2C(=O)NC2(CCC2)C(=O)N(C)[C@@H](C2CCCC2)C(=O)N1C [PP2000],0.0177 µM,–,–,A (a compound having 10 or more and less than 20 is denoted as A),B (a compound having 3 or more and less than 10 is denoted as B),–
CCC[C@H]1C(=O)N[C@@H](C2CCCCC2)C(=O)N(C)CC(=O)N(C)[C@H]2C/C=C\CCN(C2=O)[C@@H](Cc2ccc(C(F)(F)F)cc2)C(=O)N(C)CC(=O)N[C@@H](CCc2ccc(C(F)(F)F)c(Cl)c2)C(=O)N2C[C@H](OCC)C[C@H]2C(=O)NC2(CC(C)(C)C2)C(=O)N(C)[C@@H](CC(C)C)C(=O)N(C)[C@H](C(=O)N(C)C)CC(=O)N1C [PP3017],0.0463 µM,AA (a compound having 20 or more is denoted as AA),A (a compound having 10 or more and less than 20 is denoted as A),–,–,–
CCO[C@@H]1C[C@H]2C(=O)NC3(CCCC3)C(=O)N(C)[C@@H](C3CCCC3)C(=O)N(C)[C@H](C(=O)N3CCOCC3)CC(=O)N(C)[C@@H](CC(C)C)C(=O)N[C@@H]([C@@H](C)CC)C(=O)N(C)CC(=O)N(C)CC(=O)N(CC)[C@@H](Cc3ccc(C)cc3)C(=O)N(C)CC(=O)N[C@@H](CCc3ccc(C(F)(F)F)c(Cl)c3)C(=O)N2C1 [PP0042] ([NMeL]I[Sar][Sar][NEtPhe(4-Me)][Sar][hPhe(3-Cl-4-CF3)][Hyp](Et)[Ac5c][NMeGly(cPent)][NMeD]-Morpholide; lactam N-11),0.0072 µM,C (A compound having a KD ratio of 0.1 or more and less than 3 is denoted as C),C (A compound having a KD ratio of 0.1 or more and less than 3 is denoted as C),–,–,–
CCC[C@H]1C(=O)N[C@@H]([C@@H](C)CC)C(=O)N(C)CC(=O)N(C)[C@H]2C/C=C\CCN(C2=O)[C@@H](Cc2ccc(C(F)(F)F)cc2)C(=O)N(C)CC(=O)N[C@@H](CCc2ccc(C(F)(F)F)c(Cl)c2)C(=O)N2CC3(CC3)C[C@H]2C(=O)NC2(CC(C)(C)C2)C(=O)N(C)[C@@H](CC(C)(C)C)C(=O)N(C)[C@H](C(=O)N(C)C)CC(=O)N1C [PP2979],0.005 µM,A (a compound having 10 or more and less than 20 is denoted as A),B (a compound having 3 or more and less than 10 is denoted as B),–,–,–
CCO[C@@H]1C[C@H]2C(=O)NC3(CCC3)C(=O)N(C)[C@@H](C3CCCC3)C(=O)N(C)[C@H](C(=O)N3CCOCC3)CC(=O)N(C)[C@@H](CC(F)F)C(=O)N[C@@H]([C@@H](C)CC)C(=O)N(C)CC(=O)N(C)[C@H]3CCCCCN(C3=O)[C@@H](Cc3ccc(C(F)(F)F)cc3)C(=O)N(C)CC(=O)N[C@@H](CCc3cc(F)c(C(F)(F)F)c(F)c3)C(=O)N2C1 [PP0854],0.0217 µM,B (a compound having 3 or more and less than 10 is denoted as B),B (a compound having 3 or more and less than 10 is denoted as B),–,–,–
"CCCN1C(=O)CN(C)C(=O)CN(C)C(=O)[C@H]([C@@H](C)CC)NC(=O)[C@H](CC(C)C)N(C)C(=O)C[C@@H](C(=O)N2CCOCC2)N(C)C(=O)[C@H](C2CCCC2)N(C)C(=O)C2(CCCC2)NC(=O)[C@@H]2C[C@@H](OCC(F)F)CN2C(=O)[C@H](CCc2ccc(C(F)(F)F)c(Cl)c2)NC(=O)CN(C)C(=O)[C@@H]1Cc1ccc(C(F)(F)F)cc1 [PP0246] ([NMeL]I[Sar][Sar][NPrPhe(4-CF3)][Sar][hPhe(3-Cl-4-CF3)][Hyp](Ethyl(2,2-F2))[Ac5c][NMeGly(cPent)][NMeD]-Morpholide; lactam N-11)",0.0018 µM,B (a compound having 3 or more and less than 10 is denoted as B),C (A compound having a KD ratio of 0.1 or more and less than 3 is denoted as C),–,–,–
CCC(CC)[C@H]1C(=O)N(C)[C@H](C(=O)N2CCCC2)CC(=O)N(C)[C@H]2CCC/C=C/c3ccc(cc3)C[C@@H](C(=O)N(C)CC(=O)N[C@@H](CCc3ccc(Cl)c(Cl)c3)C(=O)N3CCC[C@H]3C(=O)NC3(CC(C)(C)C3)C(=O)N1C)N1CC/C=C\C[C@@H](C1=O)N(C)C(=O)CN(C)C(=O)[C@H]([C@@H](C)CC)NC2=O [PP2604],0.0208 µM,AA (a compound having 20 or more is denoted as AA),A (a compound having 10 or more and less than 20 is denoted as A),–,–,–
CCC[C@H]1C(=O)N[C@@H]([C@@H](C)CC)C(=O)N(C)CC(=O)N(C)[C@H]2C/C=C\CCN(C2=O)[C@@H](CC2CCC(F)(F)CC2)C(=O)N(C)CC(=O)N[C@@H](CCc2ccc(C(F)(F)F)c(OC)c2)C(=O)N2C[C@H](OCC)C[C@H]2C(=O)N(C)C2(CCC2)C(=O)N(C)[C@@H](C(CC)CC)C(=O)N(C)[C@H](C(=O)N(C)C)CC(=O)N1C [PP2345],0.0772 µM,–,–,A (a compound having 10 or more and less than 20 is denoted as A),A (a compound having 10 or more and less than 20 is denoted as A),–
CCO[C@@H]1C[C@H]2C(=O)NC3(CCC3)C(=O)N(C)[C@@H](C3CCCC3)C(=O)N(C)[C@H](C(=O)N(C)C)CC(=O)N(C)[C@@H](CC)C(=O)N[C@@H]([C@@H](C)CC)C(=O)N(C)CC(=O)N(C)[C@H]3C/C=C\CCN(C3=O)[C@@H](Cc3ccc(C(F)(F)F)cc3)C(=O)N(C)CC(=O)N[C@@H](CCc3ccc(C(F)(F)F)c(Cl)c3)C(=O)N2C1 [PP0978],0.0227 µM,A (a compound having 10 or more and less than 20 is denoted as A),B (a compound having 3 or more and less than 10 is denoted as B),–,–,–
CCC[C@H]1C(=O)N[C@@H]([C@@H](C)CC)C(=O)N(C)CC(=O)N(C)[C@H]2C/C=C\CCN(C2=O)[C@@H](Cc2ccc(C(F)(F)F)cc2)C(=O)N(C)CC(=O)N[C@@H](CCc2ccc(C(F)(F)F)c(OC)c2)C(=O)N2C[C@H](OCC)C[C@H]2C(=O)NC2(CC(C)(C)C2)C(=O)N(C)[C@@H](CC2CC2)C(=O)N(C)[C@H](C(=O)N(C)C)CC(=O)N1C [PP2809],0.0766 µM,A (a compound having 10 or more and less than 20 is denoted as A),A (a compound having 10 or more and less than 20 is denoted as A),–,–,–
CCC[C@H]1C(=O)N[C@@H](C2CCCC2)C(=O)N(C)CC(=O)N(C)[C@H]2C/C=C\CCN(C2=O)[C@@H](Cc2ccc(C(F)(F)F)cc2)C(=O)N(C)CC(=O)N[C@@H](CCc2ccc(C(F)(F)F)c(Cl)c2)C(=O)N2C[C@H](OCC)C[C@H]2C(=O)NC2(CC(C)(C)C2)C(=O)N(C)[C@@H](CC(C)(C)C)C(=O)N(C)[C@H](C(=O)N(C)C)CC(=O)N1C [PP2971],0.0051 µM,A (a compound having 10 or more and less than 20 is denoted as A),A (a compound having 10 or more and less than 20 is denoted as A),–,–,–
CCC[C@H]1C(=O)N[C@@H]([C@@H](C)CC)C(=O)N(C2CC2)CC(=O)N(C)[C@H]2C/C=C\CCN(C2=O)[C@@H](Cc2ccc(C(F)(F)F)cc2)C(=O)N(C)CC(=O)N[C@@H](CCc2cc(F)c(C(F)(F)F)c(F)c2)C(=O)N2C[C@H](OCC)C[C@H]2C(=O)N(C)C2(CCC2)C(=O)N(C)[C@@H](C2CCCC2)C(=O)N(C)[C@H](C(=O)N2CCCC2)CC(=O)N1C [PP3112],0.0324 µM,A (a compound having 10 or more and less than 20 is denoted as A),B (a compound having 3 or more and less than 10 is denoted as B),–,–,–
CCOC[C@H]1C(=O)N[C@@H]([C@@H](C)CC)C(=O)N(C)CC(=O)N(C)[C@H]2C/C=C\CCN(C2=O)[C@@H](Cc2ccc(C(C)C)cc2)C(=O)N(C)CC(=O)N[C@@H](CCc2ccc(C(F)(F)F)c(OC)c2)C(=O)N2C[C@@H](C)C[C@H]2C(=O)NC2(CC(C)(C)C2)C(=O)N(C)[C@@H](C2CCCC2)C(=O)N(C)[C@H](C(=O)N(C)CC)CC(=O)N1C [PP2701],–,A (a compound having 10 or more and less than 20 is denoted as A),A (a compound having 10 or more and less than 20 is denoted as A),–,–,0.0217 µM
